Test system: diamondback moth, Plutella xylostella
Assay: Diamondback moth bioassay on track-sprayed cabbage plants/leaf discs, percent control
Type: in vivo
Procedure: Three second-instar diamondback moth, Plutella xylostella, were infested onto each leaf disc. […] The “Colby's Expected Action” was calculated using Colby's equation as discussed previously.

Compound	% Control Three Days After Treatment (compound I alone, dose rate 0.000625 weight %)	% Control Three Days After Treatment (compound I alone, dose rate 0.000625 weight %, listed as compound I)	% Control Three Days After Treatment (compound I alone, dose rate 0.0025 weight %, second-instar larvae, 400 L/Ha spray)	% Control Three Days After Treatment (flonicamid alone, dose rate 0.000039 weight %)	% Control Three Days After Treatment (flonicamid alone, dose rate 0.000156 weight %)
CCN(C(=O)CCSCCC(F)(F)F)c1cn(-c2cccnc2)nc1Cl [Compound I, N-(3-chloro-1-(pyridin-3-yl)-1H-pyrazol-4-yl)-N-ethyl-3-((3,3,3-trifluoropropyl)thio)propanamide]	0%	no control	no control	–	–
N#CCNC(=O)c1cnccc1C(F)(F)F [Flonicamid, N-(cyanomethyl)-4-(trifluoromethyl)-3-pyridinecarboxamide, reference compound]	–	–	–	4.17%	4.17%

Reference: patent US9149040B2, “Synergistic pesticidal compositions and related methods” (Dow AgroSciences LLC, priority 2013, dated 2015)
